Legend:
[1] = molecular target: C. parvum PI(4)K (Cryptosporidium parvum, UniProt Q5CVD3); test: CpPI(4)K enzymatic assay (Transcreener ADP2 FP); type: biochemical
Description: Baculovirus expression and purification of C. parvum phosphatidylinositol 4-kinase: The full-length coding sequence of C. parvum PI(4)K (cgd8_4500, 1114 amino acids) was codon-optimized for baculovirus expression, synthesized and cloned into pFastBac-HTb (Invitrogen 10584-027) in frame with the amino-terminal polyhistidine tag using the BamHI and HindIII restriction sites. Recombinant pFastBacHTb-CpPI(4)K bacmid clones were generated by site-specific transposition in E. coli DH10Bac (Invitrogen 10361-012). The bacmid sequence was confirmed by direct DNA sequencing to confirm a lack of mutations across the whole gene. The subsequent steps for bacmid isolation, transfection and selection of the recombinant viruses were performed according to the manufacturer's protocol (Bac-to-Bac system #10359, Invitrogen).
SF9 cells, cultured in […] serum-free medium, were transfected with recombinant baculovirus at 1/200 (v/v) and incubated at 27° C. for 72 h. The pellets were collected after centrifugation and re-suspended in cell lysis buffer (20 mM Tris-HCl, pH 7.5, 300 mM NaCl, 1 mM DTT, 20 mM imidazole, 0.01% Triton X-100 and 1× complete protease inhibitor cocktail without EDTA (Roche Diagnostics 04693116001)). The cell suspension was lysed by sonication and the clarified supernatant was loaded onto a 1 ml HisTrap affinity column (GE Healthcare) pre-equilibrated with buffer A (20 mM Tris-HCl, pH 7.5, 300 mM NaCl, 1 mM DTT, 20 mM Imidazole, and 1× complete protease inhibitor cocktail without EDTA). The column was washed with buffer B (buffer A containing 45 mM imidazole) and the bound protein of interest was eluted with buffer C (buffer A with 90 mM imidazole). The fractions containing CpPI(4)K were pooled, concentrated using Amicon Ultra-15 and purified by a gel-filtration column (Hi-Load 26/60 Superdex 200, GE Healthcare) equilibrated with 20 mM Tris, pH 7.5, 300 mM NaCl, 1 mM DTT and 1× protease inhibitor cocktail without EDTA. The concentrations of the purified protein (Mw 132.39 kda) was determined by using the protein molar extinction coefficient (ε280 nm=133,810 M^−1 cm^−1). Aliquots were flash frozen in liquid nitrogen and immediately stored at −80° C.
PI(4)K enzymatic Assay The CpPI(4)K enzymatic assay was performed as described earlier with a some modifications (McNamara et al., 2013). Briefly, L-α-phosphatidylinositol (Avanti Polar Lipid 840046), dissolved in 3% n-octylglucoside (Roche Diagnostics 10634425001), was used as the lipid substrate for the PI(4)K activity assay. CpPI(4)K was assayed using Transcreener ADP2 FP detection kit (BellBrook 3010) in a black, solid 384-well plate (Corning 3575). The final assay volume was 10 μl and contained 3 nM of the respective CpPI(4)K construct in 10 mM Tris, pH 7.5, 1 mM DTT, 3 μM ATP, 5 mM Mn2+, 0.05% Triton X-100 and 10 μM phosphatidylinositol/octylglucoside. The enzyme reaction was performed for 50 minutes at room temperature and was stopped by adding 10 μl of detection mix containing 1× stop buffer (50 mM HEPES, pH7.5, 400 mM NaCl, 20 mM EDTA, and 0.02% Brij-35), 2 nM AMP Alexa Fluor 633 tracer, and 20 μg ml^−1 ADP antibody. Fluorescence polarization measurements were performed on the Infinite M1000 plate reader (Tecan) with λex=635 nm and λem=680 nm (20-nm bandwidth). IC50 values were calculated using Graphpad Prism software.

[2] = tested on: Cryptosporidium parvum; test: Cytopathic effect (CPE) based assay, C. parvum-infected HCT-8 cells; type: cell-based; settings: HCT-8, 48 h, read-out: (b) C.p.* CPE EC50 (μM)
Experimental: (§1) Human ileocecal colorectal adenocarcinoma cells (HCT-8 [HRT-18] ATCC, CCL-34) were maintained in T-175 flasks (Corning, 431080) in complete growth medium (RPMI-1640 medium (Gibco, 11875) supplemented with 10% heat-inactivated horse serum (Gibco, 26050), 1× MEM non-essential amino acids (Gibco, 11140), 10 mM HEPES (Gibco, 15630), 100 units/mL penicillin, and 100 units/mL streptomycin) at 37° C. and 5% CO2 in a humidified incubator. Cultures were passaged twice weekly using 10 mL of 1× Phosphate-Buffered Saline (PBS) without Ca^2+ and Mg^2+ (Gibco, 20012) for washing and 3-5 mL per T-175 flask of TrypLE Express Enzyme (Gibco, 12604) for dissociation of adherent cells.
Cryptosporidium parvum oocysts purchased from the Sterling Laboratory, University of Arizona (Iowa isolate) were purified from infected calf feces using discontinuous sucrose and cesium chloride centrifugation gradients and stored in PBS solution containing 0.01% Tween 20, 100 units/mL penicillin and 100 units/mL gentamicin.
(§2) Excystaion and infection: Excystation and infection protocols were developed following established methods with some modifications (Gut & Nelson, 1999, Upton et al., 1995, Bessoff et al., 2013). Briefly, oocysts were primed in 1 mL of 10 mM hydrochloric acid in 1× Hank's Balanced Salt Solution (HBSS) (Gibco, 14025) for 10 minutes with agitation at 1000 rpm, 37° C. on an Eppendorf thermomixer, then washed twice with 1 mL of room temperature non-acidic 1× HBSS by centrifugation at 13,000 rpm for 3 minutes at 25° C. Primed oocysts were further excysted at a concentration of 1×10^6 oocysts/μL in parasite infection medium consisting of a pre-warmed and pre-gassed 1:1 formulation of Leibovitz's L-15 medium (Gibco, 11415) and UltraCULTURE medium (Lonza, 12-725F) supplemented with 2 mM sodium taurocholate (Sigma, 86339-1), 10% heat-inactivated horse serum, and 200 μM L-ascorbic acid (Sigma, 95210) at 25° C. for 10 minutes. HCT-8 monolayer cells were infected with excysted cryptosporidium at a specified multiplicity of infection (MOI). All dilutions for subsequent assays were performed in parasite infection medium without sodium taurocholate. Pre-excysted oocysts were enumerated microscopically using a C-Chip disposable hemocytometer (NanoEnTek, DHC-N01).
Compound and assay plate preparation: Compound powders were dissolved in neat DMSO (Fisher, D4121) to 10 mM and stored at 4° C. prior to dilution into source plates. Dilutions were carried out using a Microlab STAR liquid handler (Hamilton) to obtain compound source plates containing the ten-point or eight-point three fold dilutions starting from 10 mM in duplicates. Source plates were stored at 4° C. prior to spotting into assay plates. Before administration, all compound source plates were equilibrated to room temperature. A specified volume of compounds from source plate were spotted to assay plate using an Echo Acoustic liquid handler (LABCYTE, 550) so that the final DMSO concentration was less than 0.5%. Each assay plate a specified number of DMSO-treated negative control wells and a well-studied potent active compound at 100 nM as positive control. As a quality control, all positive and negative-control wells were used to calculate a Z′-value and signal to noise ratio (S:N) for each plate.
Cryptosporidium spp are obligate-intracellular parasites that infect intestinal epithelial cells and the host cell is killed upon parasite egress. […] The loss of epithelial cells is due to both rapid parasite invasion/multiplication/egress and also pro-inflammatory immune response (Adams et al., 1994, Griffiths et al., 1994). We have observed a consistent cytopathic effect (CPE) in HCT-8 cells with C. spp infection the loss of viability of the host cells using CellTiter-Glo reagent.
Confluent HCT-8 cells in T-175 flasks were directly infected with excysted oocysts at an MOI (host to parasite) of 1:2 for C. parvum and 1:4 for C. hominis. […]

[3] = tested on: Cryptosporidium hominis; test: Cytopathic effect (CPE) based assay, C. hominis-infected HCT-8 cells; type: cell-based; settings: HCT-8 host cells, 48 hours treatment, CellTiter-Glo, read-out: (c) C.h.* CPE EC50
Experimental: as §1
Cryptosporidium hominis oocysts were purchased from the Tufts University Cummings School of Veterinary Medicine (courtesy of Dr. Saul Tzipori). C. hominis oocysts were purified from infected gnotobiotic piglet feces and stored in PBS solution containing 0.01% Tween-20, 100 units/mL penicillin and 100 units/mL gentamicin. C. parvum and C. hominis oocysts less than three months old from the date of shedding were used in infection experiments.
as §2
Compound and assay plate preparation: Compound powders were dissolved in neat DMSO (Fisher, D4121) to 10 mM and stored at 4° C. prior to dilution into source plates. Dilutions were carried out using a Microlab STAR liquid handler (Hamilton) to obtain compound source plates containing the ten-point or eight-point three fold dilutions starting from 10 mM in duplicates. […]

[4] = molecular target: H.s. PI(4)K (Homo sapiens, UniProt Q9UBF8); test: H.s. PI(4)K IC50; type: biochemical; settings: read-out: (d) H.s.* PI(4)K IC50
Sequence of H.s. PI(4)K (Q9UBF8 2-816 limits assumed): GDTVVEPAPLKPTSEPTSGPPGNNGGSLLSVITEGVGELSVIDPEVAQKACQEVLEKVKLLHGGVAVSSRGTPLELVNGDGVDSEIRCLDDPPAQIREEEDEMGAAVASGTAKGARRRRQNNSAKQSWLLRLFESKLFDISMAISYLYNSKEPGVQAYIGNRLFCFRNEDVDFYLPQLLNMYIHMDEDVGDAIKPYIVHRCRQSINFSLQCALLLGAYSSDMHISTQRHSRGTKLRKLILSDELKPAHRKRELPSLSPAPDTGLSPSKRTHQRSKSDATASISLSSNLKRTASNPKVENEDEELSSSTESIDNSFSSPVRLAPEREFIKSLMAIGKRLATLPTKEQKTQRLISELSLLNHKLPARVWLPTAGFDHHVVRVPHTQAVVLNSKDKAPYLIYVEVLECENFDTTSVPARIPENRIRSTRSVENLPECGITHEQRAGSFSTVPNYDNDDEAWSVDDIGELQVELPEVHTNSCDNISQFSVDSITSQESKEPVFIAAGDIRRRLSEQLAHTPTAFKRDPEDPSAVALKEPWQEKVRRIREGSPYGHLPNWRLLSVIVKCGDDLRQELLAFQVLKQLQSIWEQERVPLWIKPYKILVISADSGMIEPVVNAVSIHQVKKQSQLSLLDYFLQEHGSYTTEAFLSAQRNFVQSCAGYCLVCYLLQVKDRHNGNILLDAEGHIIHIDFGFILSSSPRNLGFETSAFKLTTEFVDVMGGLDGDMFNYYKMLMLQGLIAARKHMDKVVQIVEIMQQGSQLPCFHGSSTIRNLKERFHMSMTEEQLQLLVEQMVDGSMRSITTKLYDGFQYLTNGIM

Sequence of C. parvum PI(4)K (Q5CVD3 entry or part of it): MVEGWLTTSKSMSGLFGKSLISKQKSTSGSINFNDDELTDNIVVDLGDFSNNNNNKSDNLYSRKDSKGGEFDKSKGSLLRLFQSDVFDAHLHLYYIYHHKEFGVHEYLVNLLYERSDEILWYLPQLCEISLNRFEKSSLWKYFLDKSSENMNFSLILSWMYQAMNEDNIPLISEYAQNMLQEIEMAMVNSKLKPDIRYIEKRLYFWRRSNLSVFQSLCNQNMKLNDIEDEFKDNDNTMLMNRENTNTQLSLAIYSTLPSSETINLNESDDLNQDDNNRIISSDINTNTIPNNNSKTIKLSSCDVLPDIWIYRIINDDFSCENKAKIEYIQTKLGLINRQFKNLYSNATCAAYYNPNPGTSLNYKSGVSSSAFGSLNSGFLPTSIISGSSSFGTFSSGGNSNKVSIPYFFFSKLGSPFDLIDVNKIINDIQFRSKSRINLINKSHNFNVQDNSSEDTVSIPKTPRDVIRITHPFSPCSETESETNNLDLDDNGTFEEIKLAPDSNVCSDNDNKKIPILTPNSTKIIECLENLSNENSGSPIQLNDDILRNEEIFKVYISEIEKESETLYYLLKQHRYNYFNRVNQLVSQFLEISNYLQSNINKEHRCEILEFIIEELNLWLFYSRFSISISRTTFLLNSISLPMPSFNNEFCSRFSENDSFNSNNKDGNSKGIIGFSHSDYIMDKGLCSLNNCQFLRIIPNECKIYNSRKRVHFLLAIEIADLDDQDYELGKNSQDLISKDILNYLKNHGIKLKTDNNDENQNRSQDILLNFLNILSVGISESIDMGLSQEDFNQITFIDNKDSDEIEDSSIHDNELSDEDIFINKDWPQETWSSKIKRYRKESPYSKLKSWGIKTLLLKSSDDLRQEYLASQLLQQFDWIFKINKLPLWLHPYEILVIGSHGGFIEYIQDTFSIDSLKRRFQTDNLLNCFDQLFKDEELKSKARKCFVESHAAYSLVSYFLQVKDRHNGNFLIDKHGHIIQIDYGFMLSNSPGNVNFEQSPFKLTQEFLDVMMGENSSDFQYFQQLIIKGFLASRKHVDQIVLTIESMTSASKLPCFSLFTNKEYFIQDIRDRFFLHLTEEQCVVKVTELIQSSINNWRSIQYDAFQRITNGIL

COC(=O)c1cc(N(C)C(=O)c2ccn3ncc(-c4ccc(C(N)=O)cc4)c3c2)ccc1Cl [Example 1.01, Methyl 5-(3-(4-carbamoylphenyl)-N-methylpyrazolo[1,5-a]pyridine-5-carboxamido)-2-chlorobenzoate]
IC50 [1]: < 100 nM
EC50 [2]: < 0.1 µM
EC50 [3]: < 100 nM
IC50 [4]: 100 to 1000 nM

CN(C(=O)c1ccn2ncc(-c3ccc(C(N)=O)cc3)c2c1)c1ccc(Cl)c(C(=O)O)c1 [Example 1.03, 5-(3-(4-Carbamoylphenyl)-N-methylpyrazolo[1,5-a]pyridine-5-carboxamido)-2-chlorobenzoic acid]
IC50 [1]: < 100 nM
EC50 [2]: > 1 µM
IC50 [4]: 100 to 1000 nM

CN(C(=O)c1ccn2ncc(-c3ccc(C(N)=O)cc3)c2c1)c1ccc(Cl)c(C(=O)OCCN2CCOCC2)c1 [Example 1.08, 2-Morpholinoethyl 5-(3-(4-carbamoylphenyl)-N-methylpyrazolo[1,5-a]pyrdine-5-carboxamido)-2-chlorobenzoate]
IC50 [1]: < 100 nM
EC50 [2]: 0.1 to 1 µM
IC50 [4]: > 1000 nM

CNC(=O)c1ccc(-c2cnn3ccc(C(=O)N(C)c4ccc(Cl)c(C(=O)O)c4)cc23)cc1 [Example 1.18, 2-Chloro-5-(N-methyl-3-(4-(methylcarbamoyl)phenyl)pyrazolo[1,5-a]pyridine-5-carboxamido)benzoic acid]
IC50 [1]: < 100 nM
EC50 [2]: > 1 µM
IC50 [4]: 100 to 1000 nM

CNC(=O)c1ccc(-c2cnn3ccc(C(=O)N(C)c4ccc(Cl)c(C(=O)OCCN5CCOCC5)c4)cc23)cc1 [Example 1.19, 2-Morpholinoethyl 2-chloro-5-(N-methyl-3-(4-(methylcarbamoyl)phenyl)pyrazolo[1,5-a]pyridine-5-carboxamido)benzoate]
IC50 [1]: < 100 nM
EC50 [2]: 0.1 to 1 µM
IC50 [4]: 100 to 1000 nM

COC(=O)c1cc(N(C)C(=O)c2ccn3ncc(-c4ccc(C(N)=O)cc4C)c3c2)ccc1Cl [Example 1.21, Methyl 2-chloro-5-(N-methyl-3-(2-methyl-4-(carbamoyl)phenyl)pyrazolo[1,5-a]pyridine-5-carboxamido)benzoate]
IC50 [1]: < 100 nM
EC50 [2]: 0.1 to 1 µM
IC50 [4]: > 1000 nM

CNC(=O)c1ccc(-c2cnn3ccc(C(=O)N(C)c4ccc(Cl)c(C(=O)OC)c4)cc23)cc1C [Example 1.22]
IC50 [1]: 100 to 1000 nM
EC50 [2]: > 1 µM
IC50 [4]: > 1000 nM

COC(=O)c1cc(NC(=O)c2ccn3ncc(-c4ccc(C(N)=O)cc4)c3c2)ccc1Cl [Example 1.23, Methyl 5-(3-(4-carbamoylphenyl)pyrazolo[1,5-a]pyridine-5-carboxamido)-2-chlorobenzoate]
IC50 [1]: > 1000 nM
EC50 [2]: > 1 µM
IC50 [4]: > 1000 nM

CNC(=O)c1ccc(-c2cnn3ccc(C(=O)Nc4ccc(Cl)c(C(=O)OC)c4)cc23)cc1 [Example 1.24, Methyl 2-chloro-5-(3-(4-(methylcarbamoyl)phenyl)pyrazolo[1,5-a]pyridine-5-carboxamido)benzoate]
IC50 [1]: > 1000 nM
EC50 [2]: > 1 µM
IC50 [4]: > 1000 nM

COC(=O)c1cc(N(C)C(=O)c2ccn3ncc(-c4ccc(C(N)=O)cc4)c3c2)ccc1OC(F)(F)F [Example 1.25, Methyl 5-(3-(4-carbamoylphenyl)-N-methylpyrazolo[1,5-a]pyridine-5-carboxamido)-2-(trifluoromethoxy)benzoate]
IC50 [1]: < 100 nM
EC50 [2]: 0.1 to 1 µM
IC50 [4]: > 1000 nM

COC(=O)c1cc(N(C)C(=O)c2ccn3ncc(-c4ccc(C(N)=O)cc4)c3c2)ccc1C#N [Example 1.27, Methyl 5-(3-(4-carbamoylphenyl)-N-methylpyrazolo[1,5-a]pyridine-5-carboxamido)-2-cyanobenzoate]
IC50 [1]: < 100 nM
EC50 [2]: < 0.1 µM
IC50 [4]: > 1000 nM

CNC(=O)c1ccc(-c2cnc3cnc(C(=O)N(C)c4ccc(Cl)c(C(=O)OC)c4)cn23)cc1 [Example 2.1, Methyl 2-chloro-5-(N-methyl-3-(4-(methylcarbamoyl)phenyl)imidazo[1,2-a]pyrazine-6-carboxamido)benzoate]
IC50 [1]: < 100 nM
EC50 [2]: 0.1 to 1 µM
IC50 [4]: > 1000 nM
